Here are results for six molecules from EPA's ToxValDB 9.5.

SMILES strings stand for the structures. Converted amounts (≈) assume the structure as drawn. “And” between values parts separate entries of the source, which are not always exact repeats. Equal entries are not always repeated. Bounds are passed on as bounds.

For one series, the system named is Anas platyrhynchos. The note with it: subchronic; duration: 12 weeks; oral; feed; M/F; mortality.
In the next series the test system is Bovidae. The note with it: oral, diet.
The test system of a further series is Canidae. The settings on record: for NOEL: capsule.
The test system of another series is Coturnix coturnix. The settings on record: chronic; duration: 105 days; oral; diet; mortality.
Another series concerns Oncorhynchus mykiss. The note with it: for LOAEL: oral, feed.
The subject of a further series is Ovis sp. The note with it: oral.
Another series has as its system Bibionidae. The note with it: chronic/long-term.
In a further series the test system is Cyprinodon variegatus. The note with it: acute; duration: 96 hours.
For a further series, the system named is Daphnia magna. The note with it: chronic/long-term; duration: 21 days.
In a further series the test system is Lepomis macrochirus. The settings on record: acute; duration: 96 hours.
The test system of a further series is Rattus norvegicus. The note with it: for LD50: acute, mortality.
For a further series, the system named is Capra sp. The note with it: subchronic.
The subject of a further series is Oryctolagus sp. The settings on record: for LEL: subchronic; for NOEL: reproduction developmental, reproduction.
Another series concerns Sus scrofa. The settings on record: Not specified.
A further series deals with Apis mellifera. The note with it: acute, duration: 48 hours, mortality.
The next series concerns Danio rerio. The settings on record: acute; duration: 96 hours; mortality.
In the next series the test system is Typhlodromus pyri. In words: LR50; higher = less toxic. The note with it: not reported; mortality.
The next series deals with Felidae. The settings on record: acute; oral; diet; Cat; neurology.
Another series relates to Raphanus sp. The note with it: acute; duration: 19 days; seedling emergence.

Regarding `ClC1=C(Cl)[C@]2(Cl)[C@@H]3[C@H]4C[C@H]([C@@H]5O[C@H]45)[C@@H]3[C@@]1(Cl)C2(Cl)Cl` [Endrin], the NOAEL worked out at 0.5 mg/kg in the series on Anas platyrhynchos; 1 mg/kg-day with Canidae (chronic, duration: 18 months, oral, diet, Dog Other, organ weight); 1 mg/kg-day in the series with Gallus gallus (subchronic, duration: 50 days, oral, diet, mortality). The LEL amounted to 5 mg/kg-day in the series with Bovidae (chronic, duration: 112 days, no effects) and 5 mg/kg-day in the series with Ovis sp. (chronic, duration: 112 days, diet, no effects). For the same molecule, the LOAEL with Coturnix coturnix was 0.5 mg/kg-day; in the series on Oncorhynchus mykiss (chronic/long-term, duration: 163 days, clinical chemistry), 4.3 µg/kg-day.
With `CCOP(=O)(NC(C)C)Oc1ccc(SC)c(C)c1` (stereo not given) [Fenamiphos], the NOEC with Bibionidae (duration: 28 days) was determined as 1.31 µg/L; with Daphnia magna, 0.12 µg/L; in the series with Oncorhynchus mykiss (chronic/long-term, duration: 91 days), 3.8 µg/L. The NOAEL with Canidae (acute, oral, Dog Other, neurology) is 0.25 mg/kg-day; with Canidae (chronic, duration: 1 years, oral, Dog Other, neurology), 0.083 mg/kg-day. The LC50 in the series with Cyprinodon variegatus came to 0.017 µg/mL (≈ 0.056 µM); in the series with Lepomis macrochirus, 0.0093 µg/mL (≈ 0.0307 µM). Moreover, in the series on Rattus norvegicus, the LD50 worked out at 6 mg/kg-day.
Regarding `Cn1cnc2c1c(=O)[nH]c(=O)n2C` [Theobromine], the LEL worked out at 300 mg/kg-day in the series with Capra sp. (duration: 56 days, food consumption) and 0.5 mg/kg with Equus caballus (acute, no effects). In addition, the NOAEL with Oryctolagus sp. (developmental, development) was determined as 21 mg/kg-day; in the series with Ovis sp. (subchronic, duration: 3 months, diet, food consumption) it was 35 mg/kg-day; in the series with Sus scrofa (subchronic, oral, diet, growth), 7 mg/kg-day.
With `CC(C)[C@@H](C)[C@@H](O)[C@H](O)[C@@H](C)[C@H]1CC[C@H]2[C@@H]3COC(=O)[C@H]4C[C@H](O)[C@H](O)C[C@]4(C)[C@H]3CC[C@]12C`, the LD50 in the series on Apis mellifera (dermal) is more than 10 µg/piece; with Apis mellifera (oral, unspecified), more than 92.2 µg/piece; in the series with Rattus norvegicus (oral), more than 5000 mg/kg-day. Further, in the series on Danio rerio, the LC50 was more than 5 µg/mL. Moreover, the NOEL in the series on Rattus norvegicus (reproduction developmental, no effects) is not below 1000 mg/kg-day. Further, the LR50 in the series on Typhlodromus pyri is 0.28 g/ha.
Take `Cc1cc2c(C(C)C)c(O)c(O)c(C=O)c2c(O)c1-c1c(C)cc2c(C(C)C)c(O)c(O)c(C=O)c2c1O` [Gossypol]: the LEL was 5 mg/kg-day in the series with Canidae (repeat dose other, oral, diet, Dog Other, mortality); not below 15 mg/kg-day with Capra sp. (duration: 90 days, oral, feed, growth); 4 mg/kg-day with Oryctolagus sp. (duration: 8 weeks, oral, gavage, M, New Zealand, clinical chemistry). Also, the NOAEL with Gallus gallus (short-term, duration: 20 days, oral, diet, histopathology: nonneoplastic) was determined as 20 mg/kg-day; in the series with Sus scrofa (repeat dose other, organ weight), 3 mg/kg-day. For the same molecule, the LOAEL stood at 140 mg/kg in the series with Oncorhynchus mykiss (chronic/long-term, duration: 10 months, F, development) and 3 mg/kg-day in the series with Ovis sp. (subchronic, duration: 30 days, capsule, gross pathology).
The molecule `CC[C@@H](C(=O)[C@@H](C)[C@@H](O)[C@H](C)[C@@H]1O[C@@H]([C@@H](CC)C(=O)[O-])CC[C@@H]1C)[C@H]1O[C@]2(C=C[C@@H](O)[C@]3(CC[C@@](C)([C@H]4CC[C@](O)(CC)[C@H](C)O4)O3)O2)[C@H](C)C[C@@H]1C.[Na+]` [Salinomycin sodium] had an NOEC in the series on Bibionidae (other) of 6.6 mg/kg. The LEL is 90 mg/kg-day in the series with Bovidae (subchronic, duration: 11 weeks, morphology); not below 0.12 mg/kg in the series with Equus caballus (other, oral, feed, clinical signs); not below 16 mg/kg-day in the series on Felidae; 140 mg/kg-day with Gallus gallus (subchronic, duration: 5 weeks, oral, diet, M, body weight); 60 mg/kg-day in the series with Gallus gallus (subchronic, duration: 12 weeks, oral, diet, body weight); 140 mg/kg-day in the series on Gallus gallus (subchronic, duration: 42 days, organ weight). For the same molecule, the LEL in the series with Gallus gallus (subchronic, duration: 56 days, growth) is 150 mg/kg-day; with Oryctolagus sp. (duration: 6 weeks, oral, diet, food consumption), not above 25 mg/kg-day. Further, the NOAEL was 0.5 mg/kg-day in the series on Canidae (acute, duration: 1 days, oral, gavage, Beagle, clinical signs); 0.5 mg/kg-day in the series on Canidae (chronic, duration: 1 years, oral, diet, Dog Other, neurology); 0.5 mg/kg-day in the series with Canidae (chronic, duration: 12 months, Dog Other); 0.6 mg/kg-day with Rattus norvegicus (subchronic, duration: 90 days, oral, diet, M/F, Sprague-Dawley, organ weight); not below 5 mg/kg-day in the series on Sus scrofa (chronic, duration: 14 weeks, oral, diet, M/F, no effects). In addition, the NOEL was 0.5 mg/kg-day with Canidae (chronic, duration: 12 months, oral, M/F, Dog Other, neurology); 0.625 mg/kg-day with Canidae (repeat dose other, oral, Dog Other, clinical signs); 0.5 mg/kg-day in the series on Oryctolagus sp. (duration: 24 days, oral, diet, F); 0.5 mg/kg-day in the series with Oryctolagus sp.. The LC50 in the series with Danio rerio was 6.98 µg/mL; in the series with Oncorhynchus mykiss (acute, duration: 96 hours, mortality), 1.7 µg/mL and 1.14 µg/mL; in the series with Raphanus sp., 2.6 mg/kg. The molecule also displayed an LOEL in the series with Rattus norvegicus (chronic, duration: 2 years, oral, diet, M/F, Wistar, clinical chemistry) of 1.5 mg/kg-day.

What is called NOAEL is the highest tested level that showed no adverse finding. By LOAEL is commonly meant the lowest tested level that showed an adverse finding.
